# From paper PMC10862539, “Chelation of Mitochondrial Iron as an Antiparasitic Strategy” (ACS Infectious Diseases, 2024)
# What was measured:
# [1] = tested on: T. brucei 427 bloodstream form; experiment: Reactive oxygen species determination (H2DCFDA, flow cytometry); type: cell-based, Trypanosoma brucei; conditions: twice the EC50 value (0.12 μM), 24 h
# Description: T. brucei 427 bloodstream form’s cellular ROS production was assessed using H2DCFDA (Sigma-Aldrich). Cells were preincubated for 24 h with 0.12 μM mitoDFO, and approximately 1 × 10^6 cells were incubated with 10 μM H2DCFDA for 30 min and washed with PBS with 6 mM glucose, and 10 000 events were measured on a Guava EasyCyte 8HT flow cytometer (Luminex) using a 488 excitation laser and a 525/30 detector. Median fluorescence was plotted against untreated culture using Prism 8.0 (GraphPad Software), and statistical significance was determined using a two-tailed paired t-test. The experiment was performed in three biologically independent replicates.
# [2] = tested on: T. brucei 427 bloodstream form; experiment: Mitochondrial membrane potential (TMRE, flow cytometry); type: cell-based, Trypanosoma brucei; design: dose or concentration left out as unconfirmed; conditions: 0.12, 0.3, and mitoDFO for 24 h
# Description: T. brucei 427 bloodstream form’s mitochondrial membrane potential was assessed using the fluorescent probe TMRE (Thermo Fisher Scientific). […] Approximately 1 × 10^6 cells were incubated with 60 nM TMRE for 30 min and washed with PBS with 6 mM glucose, and 10 000 events were measured on a Guava EasyCyte 8HT flow cytometer (Luminex) using a 488 excitation laser and a 583/26 detector. Median fluorescence was plotted against untreated culture using Prism 8.0 (GraphPad Software), and statistical significance was determined using RM one-way ANOVA with Geisser-Greenhouse correction. The experiment was performed in three biologically independent replicates.
structure (smiles),measurement,setting,value
CC(=O)N(O)CCCCCNC(=O)CCC(=O)N(O)CCCCCNC(=O)CCC(=O)N(O)CCCCCN(CCCCCCCCCC[P+](c1ccccc1)(c1ccccc1)c1ccccc1)CCCCCCCCCC[P+](c1ccccc1)(c1ccccc1)c1ccccc1 [mitoDFO],increase in the presence of ROS compared to the culture without treatment,[1],approximately 3.5 fold
same,mitochondrial membrane potential,[2],rapidly reduced in a dose-dependent manner
